{"source": "patent US20250051324A1", "about": "“PARP INHIBITOR, PHARMACEUTICAL COMPOSITION COMPRISING SAME, AND USE THEREOF” (KEYTHERA (SUZHOU) BIO-PHARMACEUTICALS CO., LIMITED, priority 2021, published 2025)", "key": {"PARP1": {"target": "PARP1 (Homo sapiens (Human), UniProt P09874)", "sequence (P09874 whole entry)": "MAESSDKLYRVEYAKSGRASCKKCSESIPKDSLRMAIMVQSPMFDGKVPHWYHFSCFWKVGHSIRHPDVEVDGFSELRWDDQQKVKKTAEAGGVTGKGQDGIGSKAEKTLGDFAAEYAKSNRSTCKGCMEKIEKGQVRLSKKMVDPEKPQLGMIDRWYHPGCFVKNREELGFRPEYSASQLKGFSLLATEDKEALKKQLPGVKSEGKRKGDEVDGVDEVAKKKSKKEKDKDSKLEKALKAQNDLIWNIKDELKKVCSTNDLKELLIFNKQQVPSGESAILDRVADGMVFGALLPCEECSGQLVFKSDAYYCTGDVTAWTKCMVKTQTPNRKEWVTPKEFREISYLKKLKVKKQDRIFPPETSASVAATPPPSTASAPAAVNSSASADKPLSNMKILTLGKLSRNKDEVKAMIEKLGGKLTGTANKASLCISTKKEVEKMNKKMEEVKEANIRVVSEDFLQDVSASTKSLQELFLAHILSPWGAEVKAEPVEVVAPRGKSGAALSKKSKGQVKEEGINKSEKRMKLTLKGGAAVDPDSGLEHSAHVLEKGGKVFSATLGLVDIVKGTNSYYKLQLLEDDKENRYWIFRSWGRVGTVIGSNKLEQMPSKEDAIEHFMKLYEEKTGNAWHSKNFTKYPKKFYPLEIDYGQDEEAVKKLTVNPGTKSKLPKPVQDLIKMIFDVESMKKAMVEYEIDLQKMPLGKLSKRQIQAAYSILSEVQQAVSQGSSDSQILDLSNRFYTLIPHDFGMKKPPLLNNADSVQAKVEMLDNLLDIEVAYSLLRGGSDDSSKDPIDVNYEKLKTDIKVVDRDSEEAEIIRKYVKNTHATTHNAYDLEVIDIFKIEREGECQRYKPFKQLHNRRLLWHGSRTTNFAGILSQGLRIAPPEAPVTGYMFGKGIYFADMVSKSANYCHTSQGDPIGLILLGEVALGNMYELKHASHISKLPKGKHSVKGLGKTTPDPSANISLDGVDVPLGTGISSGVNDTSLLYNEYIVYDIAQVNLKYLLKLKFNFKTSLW", "assay": "PARP1 trapping assay", "format": "biochemical", "details": "read-out: Inhibitory Effect on PARP1 Trapping IC50", "in_short": "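PARP1 and PARP2 with GST-Tb antibody and probe incubated with serially diluted compounds for 45 min at room temperature, then NAD added for 10 min before plate reading. Percent inhibition derived from compound, blank and vehicle control readings.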"}, "PARP2": {"target": "PARP2 (Homo sapiens (Human), UniProt Q9UGN5)", "sequence (Q9UGN5 whole entry)": "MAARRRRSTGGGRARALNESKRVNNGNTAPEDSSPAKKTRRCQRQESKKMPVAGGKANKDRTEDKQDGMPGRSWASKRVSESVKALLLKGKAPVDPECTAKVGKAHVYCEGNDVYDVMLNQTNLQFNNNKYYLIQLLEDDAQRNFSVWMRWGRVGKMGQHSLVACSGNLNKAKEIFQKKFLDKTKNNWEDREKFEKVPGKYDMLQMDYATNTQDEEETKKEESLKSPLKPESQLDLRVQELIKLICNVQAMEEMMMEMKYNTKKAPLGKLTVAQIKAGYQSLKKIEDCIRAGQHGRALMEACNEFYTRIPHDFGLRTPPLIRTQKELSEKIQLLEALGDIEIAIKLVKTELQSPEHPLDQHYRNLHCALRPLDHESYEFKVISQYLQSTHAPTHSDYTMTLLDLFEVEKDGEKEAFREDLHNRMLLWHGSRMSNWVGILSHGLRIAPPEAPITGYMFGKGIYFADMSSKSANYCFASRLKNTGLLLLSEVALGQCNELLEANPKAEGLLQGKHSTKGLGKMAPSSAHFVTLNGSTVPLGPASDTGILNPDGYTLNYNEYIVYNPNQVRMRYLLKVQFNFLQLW", "assay": "PARP2 trapping assay", "format": "biochemical", "details": "read-out: Inhibitory Effect on PARP2 Trapping IC50", "procedure": "[table] […] 1. A 4× enzyme reaction mixture, comprising PARP1, PARP2, and GST-Tb antibody, was prepared with the buffer and 4 μL of the enzyme reaction mixture was added to a 384-well plate. 2. A 4×PARP1 and PARP2 probe reaction mixture was prepared with the buffer and 4 μL of the probe reaction mixture was added to the 384-well plate. 3. A series of gradient-diluted compounds were prepared and 4 μL of the diluted compounds were added to the 384-well plate, and incubated at room temperature for 45 minutes. 4. After incubation, 4 μL of 4×NAD reaction mixture was added to the 384-well plate and incubated at room temperature for 10 minutes. 5. After incubation, the plate was read using a plate reader. 6. Data Analysis: The percentage inhibition rate was calculated as follows: Inhibition Rate (%)=(Reading of Compound Group−Reading of Blank Group)/(Reading of Vehicle Control Group−Reading of Blank Group)."}, "[1]": {"assay": "Evaluation of pharmacokinetics in rats", "format": "in vivo", "details": "male, SD, rat, plasma, 1 mg/kg, oral gavage (PO, 1 mpk)", "excerpt": "Test Animals: 6-8 Week Old Male SD Rats\nFood was restored two hours after dosing."}, "[2]": {"test_system": "human breast cancer (MDA-MB-436) cell line", "assay": "Mouse CDX tumor model (MDA-MB-436 subcutaneous xenograft)", "format": "in vivo", "details": "for Tumor Growth Inhibition Rate (TGI): 28 days", "procedure": "Test Objective: The efficacy of the compounds was evaluated in a subcutaneous xenograft model of human breast cancer (MDA-MB-436) cell line in mice.\nTest Compounds: Olaparib, Compound 1\nExperimental Animals: Female NOD SCID mice, 4-5 weeks old, purchased from Nanjing Jicui.\nHousing and Management: The experimental animals were housed in SPF-grade, temperature- and humidity-controlled clean rooms, using individually ventilated cages (IVC) with no more than 5 mice per cage. Temperature/humidity was controlled within the range of (23±3)° C./40-70%. Feed and water: SPF-grade mouse feed, sterilized by cobalt-60 irradiation. Drinking water was ultrafiltered and autoclaved. Animals had free access to sterile food and water. Animal identification: ear tags.\nTumor Cell Line and Tumor Model: MDA-MB-436 cells (Nanjing Cobioer Biotechnology Co., Ltd., Cat. No: CBP60385) were cultured in vitro in DMEM complete medium containing 10% fetal bovine serum, 1% penicillin-streptomycin, 1% insulin, and 16 μg/mL glutathione (37° C., 5% CO2). When the cells met the requirements for the in vivo efficacy experiment, they were collected, counted, and prepared into a PBS cell suspension. Each mouse (5-6 weeks old NOD SCID) was inoculated subcutaneously on the right flank with 0.9×10^7 cells. Tumor volume was measured and calculated three times a week after inoculation. When the tumor volume reached approximately 200-300 mm^3, the mice were grouped for administration.\nExperimental Groups: The experiment was divided into the following groups: vehicle control group; Olaparib 100 mg/kg group; Compound 1 0.1 mg/kg group; Compound 1 0.3 mg/kg group; and Compound 1 1.0 mg/kg group. All groups were administered orally by gavage once daily. […] After 28 days of administration, the tumor volume was used to calculate the tumor growth inhibition rate (TGI %), and the tumor inhibition effect was statistically analyzed using software such as Excel, etc."}, "[3]": {"test_system": "breast cancer BR-05-0044E", "format": "in vivo, mouse", "details": "for Tumor Growth Inhibition Rate (TGI): 21 days", "procedure": "Test Objective: The in vivo efficacy of the test compound was evaluated in a subcutaneous xenograft tumor model of breast cancer BR-05-0044E in NOD SCID mice.\nExperimental Animals: Female NOD SCID mice, 6-8 weeks old, weighing 18-20 grams were provided by Beijing Charles River Laboratory Animal Technology Co., Ltd. The animals were acclimated in the experimental environment for 3-7 days before the experiment. The animals were housed in SPF-grade animal rooms in IVC cages (individually ventilated cages) with 4 mice per cage. All cages, bedding, and drinking water were sterilized before use. Cages, feed, and water were changed twice a week. The housing environment and lighting conditions were as follows: temperature: 20-26° C., humidity: 40-70%, light cycle: 12 hours light, 12 hours dark.\nPDX Model Establishment: The human breast cancer BR-05-0044E model was initially derived from clinical samples surgically removed. After tumor tissue was expanded in mice, 20-30 mm^3 BR-05-0044E tumor tissue blocks were subcutaneously implanted into the right flank of each mouse. Tumor growth was monitored, and when the average tumor volume reached approximately 150-200 mm^3, the mice were randomly grouped for administration. Animals were weighed, and tumor volume was measured before administration. Random grouping was based on tumor volume (random block design).\nExperimental Groups: The experiment was divided into the following groups: 1. Vehicle control group, 2. Compound 1 0.1 mg/kg, 3. Compound 1 0.3 mg/kg, 4. Compound 1 1.0 mg/kg. All groups were administered orally by gavage once daily. Routine checks included observing tumor growth and the impact of drug treatment on the animals' daily behavior (such as activity, food and water intake, body weight changes (measured twice a week), appearance, or other abnormalities). The animal number of deaths and side effects in each group were recorded.\nExperimental Indicators: The experimental indicators were to assess whether tumor growth was inhibited, delayed, or cured. Tumor diameter was measured twice a week with calipers. Tumor volume was calculated using the formula: V=0.5a×b^2, where a and b represent the tumor's length and width, respectively.\nThe efficacy of the compound on inhibiting tumor was evaluated by tumor volume and tumor growth inhibition rate (TGI). TGI (%) was calculated as follows: TGI (%)={1−(Average Tumor volume at end of administration in treatment group−Average Tumor volume at start of administration in treatment group)/(Average Tumor volume at end of administration in vehicle control group−Average Tumor volume at start of administration in vehicle control group)}×100%."}}, "note": "Like-named read-outs stand apart in the source and are kept apart here."}
{"molecule": "CNC(=O)c1ccc(N2CCN(Cc3cnc4c(C)c(C(F)(F)F)c(=O)[nH]c4c3)CC2)cn1", "note": "[Compound 1, N-methyl-5-(4-((8-methyl-6-oxo-7-(trifluoromethyl)-5,6-dihydro-1,5-naphthyridin-3-yl)methyl)piperazin-1-yl)picolinamide]", "values": [{"measurement": "IC50", "setting": "PARP1", "value": 1.33, "unit": "nM"}, {"measurement": "IC50", "setting": "PARP2", "value": 164, "unit": "nM"}, {"measurement": "AUC(0-inf)", "setting": "[1]", "value": 11300, "unit": "ng·h/mL"}, {"measurement": "Cmax", "setting": "[1]", "value": 1740, "unit": "ng/mL"}, {"measurement": "half-life", "setting": "[1]", "value": 4.33, "unit": "h"}, {"measurement": "Tumor Growth Inhibition Rate (TGI)", "setting": "[2]; 0.1 mg/kg oral once daily", "value": 89, "unit": "%"}, {"measurement": "Tumor Growth Inhibition Rate (TGI)", "setting": "[2]; 0.3 mg/kg oral once daily", "value": 113, "unit": "%"}, {"measurement": "Tumor Growth Inhibition Rate (TGI)", "setting": "[2]; 1.0 mg/kg oral once daily", "value": 115, "unit": "%"}, {"measurement": "Body weight vs vehicle control group", "setting": "[2]; MDA-MB-436 model, all treatment groups", "value": "no significant difference"}, {"measurement": "Tumor Growth Inhibition Rate (TGI)", "setting": "[3]; 0.1 mg/kg oral once daily", "value": 105, "unit": "%"}, {"measurement": "Tumor Growth Inhibition Rate (TGI)", "setting": "[3]; 0.3 mg/kg oral once daily", "value": 106, "unit": "%"}, {"measurement": "Tumor Growth Inhibition Rate (TGI)", "setting": "[3]; 1.0 mg/kg oral once daily", "value": 107, "unit": "%"}, {"measurement": "Body weight vs vehicle control group", "setting": "[3]; mouse, in vivo", "value": "no significant difference"}]}
